The values below come from ChEMBL document CHEMBL1158436, “In vitro inhibition of human erythrocyte glutathione reductase by some new organic nitrates” (Bioorg Med Chem Lett, 2009).

The target of the assay is T1, Glutathione reductase, mitochondrial (Homo sapiens, UniProt P00390).
T1 sequence (P00390 whole entry): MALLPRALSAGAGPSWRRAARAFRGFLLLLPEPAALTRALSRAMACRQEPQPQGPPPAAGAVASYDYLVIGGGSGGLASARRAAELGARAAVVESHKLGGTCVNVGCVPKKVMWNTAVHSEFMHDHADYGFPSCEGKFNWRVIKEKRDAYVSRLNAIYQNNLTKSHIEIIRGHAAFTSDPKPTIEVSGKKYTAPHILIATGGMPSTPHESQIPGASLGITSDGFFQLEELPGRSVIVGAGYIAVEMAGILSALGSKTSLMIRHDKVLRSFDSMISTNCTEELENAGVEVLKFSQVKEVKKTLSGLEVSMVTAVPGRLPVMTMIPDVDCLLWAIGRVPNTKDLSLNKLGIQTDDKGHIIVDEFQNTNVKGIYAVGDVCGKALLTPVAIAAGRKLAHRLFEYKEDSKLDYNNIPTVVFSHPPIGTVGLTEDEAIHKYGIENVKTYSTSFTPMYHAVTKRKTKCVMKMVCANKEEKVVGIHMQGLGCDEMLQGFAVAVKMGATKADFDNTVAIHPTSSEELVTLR
Briefly: Inhibition of human erythrocyte glutathione reductase.
On to `O=[N+]([O-])O[C@H]1CC2CCC1[C@@H]2O` (stereo partly drawn), for which the IC50 (commonly the concentration that inhibits the measured activity by half) stood at 7.13 µM and the Ki (usually the equilibrium dissociation constant of an inhibitor or competing ligand from its target) came out at 13.1 µM.
The matching figures for `O=[N+]([O-])O[C@@H]1CC2CCC1[C@@H]2O` (stereo partly drawn): 6.81 µM and 11.7 µM.
The matching figures for `O=[N+]([O-])O[C@@H]1CC[C@H](Br)[C@@H]2CC[C@H]1O2`: 11 µM and 21.5 µM.
The matching figures for `O=[N+]([O-])O[C@H]1CCCCCC[C@@H]1O`: 14.2 µM and 21.9 µM.
`O=[N+]([O-])OC1CC2c3ccccc3C1C2O` (stereo not drawn) had an IC50 of 10.3 µM and a Ki of 18.8 µM.
In turn, `O=[N+]([O-])O[C@H]1CCCC[C@@H]1O` returned an IC50 of 21 µM and a Ki of 43.7 µM.
For `O=[N+]([O-])O[C@H]1CC=CC[C@@H]1O` (racemic), in that order: 23 µM and 35.1 µM.
For `O=[N+]([O-])O[C@H]1CC/C=C\CC[C@@H]1O` (racemic), in that order: 29 µM and 44.3 µM.
For `O=[N+]([O-])O[C@@H](CO)c1ccccc1` (single isomer, unassigned), in that order: 16 µM and 25.6 µM.
